In PubChem BioAssay (NCI):
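Where inhibition never reached the appropriate level, the endpoint shown equals the highest concentration tested. Otherwise, values were interpolated linearly from a five-concentration, 48-hour dose response in 96-well plates. GI50 = concentration required for 50% inhibition of growth. The concentration for full growth arrest is given as TGI.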 Where a SMILES comes first, the peptide text is derived from it. [ ]: non-standard residue; d: D form. The star is where a group is joined. X13 = OC[C@H](CC1CCCCC1)N*; Aib = CC(C)(N)C(=O)O

Key:
Experiment in all cases: NCI-60 cell line screen, 48 h
OVCAR-8 ovarian = tested on: OVCAR-8 ovarian
HL-60(TB) leukemia = tested on: HL-60(TB) leukemia
NCI-H226 lung = tested on: NCI-H226 lung
NCI-H23 lung = tested on: NCI-H23 lung
SF-295 CNS = tested on: SF-295 CNS
U251 CNS = tested on: U251 CNS
HOP-92 NSCLC = tested on: HOP-92 NSCLC
UACC-257 melanoma = tested on: UACC-257 melanoma
IGROV1 ovarian = tested on: IGROV1 ovarian
DU-145 prostate = tested on: DU-145 prostate
COLO 205 colon = tested on: COLO 205 colon
OVCAR-5 ovarian = tested on: OVCAR-5 ovarian
KM12 colon = tested on: KM12 colon
CCRF-CEM leukemia = tested on: CCRF-CEM leukemia
SNB-19 CNS = tested on: SNB-19 CNS
MDA-MB-435 = tested on: MDA-MB-435
SK-MEL-28 melanoma = tested on: SK-MEL-28 melanoma
OVCAR-4 ovarian = tested on: OVCAR-4 ovarian
SK-MEL-2 melanoma = tested on: SK-MEL-2 melanoma
A549 NSCLC = tested on: A549 NSCLC
ACHN renal = tested on: ACHN renal
HCT-116 colon = tested on: HCT-116 colon
SK-MEL-5 melanoma = tested on: SK-MEL-5 melanoma
OVCAR-3 ovarian = tested on: OVCAR-3 ovarian
NCI-H460 lung = tested on: NCI-H460 lung
SN12C renal = tested on: SN12C renal
RXF 393 renal = tested on: RXF 393 renal
HCC-2998 colon = tested on: HCC-2998 colon
NCI/ADR-RES ovarian = tested on: NCI/ADR-RES ovarian

CC(=O)NC(C)(C)C(=O)N[C@@H](C)C(=O)NC(C)(C)C(=O)N[C@@H](C)C(=O)NC(C)(C)C(=O)N[C@@H](C)C(=O)N[C@@H](CCC(N)=O)C(=O)NC(C)(C)C(=O)N[C@H](C(=O)NC(C)(C)C(=O)NCC(=O)N[C@@H](CC(C)C)C(=O)NC(C)(C)C(=O)N1CCC[C@H]1C(=O)N[C@H](C(=O)NC(C)(C)C(=O)NC(C)(C)C(=O)N[C@@H](CCC(N)=O)C(=O)N[C@@H](CCC(N)=O)C(=O)N[C@H](CO)CC1CCCCC1)C(C)C)C(C)C (Ac-[Aib]A[Aib]A[Aib]AQ[Aib]V[Aib]GL[Aib]PV[Aib][Aib]QQ-X13)
TGI (OVCAR-8 ovarian): > 5 µM | GI50 (HL-60(TB) leukemia): 1.3 µM | TGI (HL-60(TB) leukemia): > 5 µM | GI50 (NCI-H226 lung): 2.06 µM | TGI (NCI-H226 lung): > 5 µM | GI50 (NCI-H23 lung): 1.38 µM | TGI (NCI-H23 lung): > 5 µM | GI50 (SF-295 CNS): 1.64 µM | TGI (SF-295 CNS): > 5 µM | GI50 (U251 CNS): 2.19 µM | TGI (U251 CNS): > 5 µM | GI50 (HOP-92 NSCLC): 1.01 µM | TGI (HOP-92 NSCLC): 3.8 µM | GI50 (UACC-257 melanoma): 0.446 µM | TGI (UACC-257 melanoma): 2.67 µM | GI50 (IGROV1 ovarian): 3.06 µM | TGI (IGROV1 ovarian): > 5 µM | GI50 (DU-145 prostate): 1.33 µM | TGI (DU-145 prostate): > 5 µM | GI50 (COLO 205 colon): 0.178 µM | TGI (COLO 205 colon): 1.22 µM | GI50 (OVCAR-5 ovarian): > 4.67 µM | TGI (OVCAR-5 ovarian): > 5 µM | GI50 (KM12 colon): > 4.1 µM | TGI (KM12 colon): > 5 µM | GI50 (CCRF-CEM leukemia): > 4.8 µM | TGI (CCRF-CEM leukemia): > 5 µM | GI50 (SNB-19 CNS): 1.79 µM | TGI (SNB-19 CNS): > 5 µM | GI50 (MDA-MB-435): 0.834 µM | TGI (MDA-MB-435): > 5 µM | GI50 (SK-MEL-28 melanoma): 0.199 µM | TGI (SK-MEL-28 melanoma): 1.37 µM | GI50 (OVCAR-4 ovarian): 1.58 µM | TGI (OVCAR-4 ovarian): > 5 µM | GI50 (SK-MEL-2 melanoma): 1.44 µM | TGI (SK-MEL-2 melanoma): > 5 µM | GI50 (A549 NSCLC): > 5 µM | TGI (A549 NSCLC): > 5 µM | GI50 (ACHN renal): > 5 µM | TGI (ACHN renal): > 5 µM | GI50 (HCT-116 colon): 2.04 µM | TGI (HCT-116 colon): > 5 µM | GI50 (SK-MEL-5 melanoma): 1.1 µM | TGI (SK-MEL-5 melanoma): > 3.14 µM | GI50 (OVCAR-3 ovarian): 1.68 µM | TGI (OVCAR-3 ovarian): > 5 µM | GI50 (NCI-H460 lung): 1.51 µM | TGI (NCI-H460 lung): > 5 µM | GI50 (SN12C renal): 1.82 µM | TGI (SN12C renal): > 5 µM | GI50 (RXF 393 renal): 2.63 µM | TGI (RXF 393 renal): > 5 µM | GI50 (HCC-2998 colon): 2.91 µM | TGI (HCC-2998 colon): > 5 µM | GI50 (NCI/ADR-RES ovarian): > 5 µM | TGI (NCI/ADR-RES ovarian): > 5 µM
